A short description of series [1]: Evaluation of molecule stability (alkali treatment, residual rate by LC/MS). Format: physicochemical. As to conditions: for Stability (molecule stability, residual rate of the cyclic peptide rank): alkali treatment, residual rate by LC/MS; for Performance evaluation: Stability (residual rate of cyclic peptide after alkali treatment): 500 μM peptide aqueous solution plus equivalent of 1 M sodium hydroxide, 15° C., 3 hours, LC/MS peak area. Here is the method:
The molecule stability of the cyclic peptide was evaluated by analyzing the alkali-treated cyclic peptide aqueous solution by liquid chromatography mass spectroscopy (LC/MS).
The alkali treatment was carried out by the following method. A 500 μM cyclic peptide aqueous solution was prepared, an equivalent of 1 M sodium hydroxide aqueous solution was added to this aqueous solution, and the resultant mixture was incubated at 15° C. for 3 hours to obtain an alkali-treated cyclic peptide aqueous solution. The cyclic peptide residual rate was calculated by setting the total area of all peaks of the cyclic peptide before alkali treatment in LC/MS to 100% and determining the proportion of the total area of all peaks in LC/MS of the alkali-treated cyclic peptide aqueous solution, and the molecule stability was evaluated according to the following evaluation standards. It is preferable that the evaluation result satisfies the evaluation standard A, B, or C.
The conditions of the LC/MS used for the evaluation of molecule stability were set as follows. • LC apparatus: Prominence series (pump, column oven, autosampler, detector) (manufactured by Shimadzu Corporation) • MS detector: LC/MS2010EV (manufactured by Shimadzu Corporation) • Column: Cadenza CD-C18, inner diameter 2.0 mm×length 250 mm, particle size: 3 μm (manufactured by Imtakt Corporation) • Eluent A: a solution (pH 3) containing 10 mM ammonium formate as a solute, where the solvent is 100% water. • Eluent B: a solution (pH 3) containing 10 mM ammonium formate as a solute, where the solvent is acetonitrile/water=90/10. • Flow rate: 0.2 mL/min • Injection volume: 4 μL • Gradient: 0% to 30%: Eluent B (0 to 30 minutes), 100%: Eluent B (30 to 40 minutes), 0%: Eluent B (40 to 60 minutes) • Column temperature: 45° C. • Ionization method: electrospray ionization (ESI) positive, ESI negative

In a further series the target is human integrin αvβ5 (Homo sapiens, UniProt P06756+P18084). The series can be described thus: Evaluation of integrin binding property (surface plasmon resonance, Biacore 3000, immobilized cyclic peptide). Here is the method: A commercially available CMS (a carboxymethyl dextran introduction type, manufactured by GE Healthcare) sensor chip was set in Biacore 3000, which is a surface plasmon resonance apparatus manufactured by GE Healthcare, the sensor was stabilized at a flow rate of 10 μL/min of a HEPES (4-(2-hydroxyethyl)-1-piperazineethanesulfonic acid) buffer solution (20 mM HEPES-HCl, 150 mM NaCl, pH 7.4) for surface plasmon resonance (SPR), and 70 μL of a mixed aqueous solution of 0.2 M 1-(3-dimethylaminopropyl)-3-ethylcarbodiimide (EDC) and 0.04 M N-hydroxysuccinimide (NHS) was added thereto. Here, the concentration unit M represents mol/L, and the same applies hereinafter. Then, 20 μL of the sample solution of each of the above cyclic peptides diluted to 0.2 g/L with the HEPES buffer solution was supplied to the sensor chip, blocking treatment was subsequently carried out with an ethanolamine solution, and washing was carried out with a sodium hydroxide aqueous solution, whereby immobilization was carried out. However, only for the cyclic peptides 125, 126, and 127, in which the number of lysine residues having an amino group as the immobilizing functional group was zero, the amount of the sample solution to be supplied to the sensor chip was set to 500 μL instead of 20 μL. Further, 70 μL of the mixed aqueous solution of 0.2 M EDC and 0.04 M NHS was added to another flow channel of the same sensor chip without immobilizing the sample, and then blocking treatment and washing treatment were carried out. Hereinafter, the obtained immobilization-treated sensor chip is referred to as an “immobilization-treated sensor chip A”.
After adding human integrin αvβ5 for 10 minutes at 25° C., which was diluted to 30 nM using a HEPES buffer solution to which magnesium chloride was added to 5 mM, in each flow channel of the immobilization-treated sensor chip A prepared in (1) above, the same HEPES buffer solution (containing 5 mM magnesium chloride) was allowed to flow as a running buffer for 30 minutes, and measurement was carried out with Biacore 3000. Then, a regeneration treatment of removing human integrin αvβ5 was carried out by allowing a 0.5 M EDTA aqueous solution to flow through each flow channel for 10 minutes. Further, the above-described measurement process consisting of adding integrin for 10 minutes, allowing a running buffer to flow for 30 minutes, carrying out measurement with Biacore 3000, and carrying out regeneration treatment with 0.5 M EDTA aqueous solution was carried out in the same manner for 100 nM human integrin αvβ5, 300 nM human integrin αvβ5, and 1,000 nM human integrin αvβ5. Dissociation constant between the cyclic peptide and human integrin αvβ5 was calculated from the difference between the value measured by Biacore 3000 in the flow channel immobilized with the cyclic peptide and the value measured by Biacore 3000 in the flow channel unimmobilized with the cyclic peptide, in a case where each concentration of human integrin αvβ5 was allowed to flow, and the integrin binding property was evaluated according to the following evaluation standards. It is preferable that the evaluation result satisfies the evaluation standard A, B, or C.

[2] abbreviates: surface plasmon resonance, immobilized cyclic peptide, human integrin αvβ5, read-out: Binding activity (integrin binding property, dissociation constant rank).
Setting [3] is: SPR, 25° C., HEPES buffer with 5 mM magnesium chloride, integrin 30-1,000 nM, read-out: Performance evaluation: Binding activity (dissociation constant between the cyclic peptide and human integrin αvβ5).

The values that follow come from patent US12673975B2, “Cyclic peptide, cell scaffold material, cell separating material, and medium” (FUJIFILM Corporation, priority 2019, dated 2026).

pKd: −log10 of the molar value. Where two headings read alike, the source gives them in different places. Starred links: 1 amine or outer side, 2 acyl side, 3 side chain; linkers in the order of their positions; H or OH if unused. Positions of bridges follow the written chain, without caps; N, C: chain ends. Non-standard residues stand in square brackets, D forms with d. Residues, ends and D or L forms follow the SMILES beside them. Pen = CC(C)(S)[C@H](N)C(=O)O; hCys = N[C@@H](CCS)C(=O)O; Dab = NCC[C@H](N)C(=O)O; X1 = O=C(C[*:2])[*:1]; X2 = O=C(C[*:1])[*:2]

Chain of human integrin αvβ5 (P06756 31-1048): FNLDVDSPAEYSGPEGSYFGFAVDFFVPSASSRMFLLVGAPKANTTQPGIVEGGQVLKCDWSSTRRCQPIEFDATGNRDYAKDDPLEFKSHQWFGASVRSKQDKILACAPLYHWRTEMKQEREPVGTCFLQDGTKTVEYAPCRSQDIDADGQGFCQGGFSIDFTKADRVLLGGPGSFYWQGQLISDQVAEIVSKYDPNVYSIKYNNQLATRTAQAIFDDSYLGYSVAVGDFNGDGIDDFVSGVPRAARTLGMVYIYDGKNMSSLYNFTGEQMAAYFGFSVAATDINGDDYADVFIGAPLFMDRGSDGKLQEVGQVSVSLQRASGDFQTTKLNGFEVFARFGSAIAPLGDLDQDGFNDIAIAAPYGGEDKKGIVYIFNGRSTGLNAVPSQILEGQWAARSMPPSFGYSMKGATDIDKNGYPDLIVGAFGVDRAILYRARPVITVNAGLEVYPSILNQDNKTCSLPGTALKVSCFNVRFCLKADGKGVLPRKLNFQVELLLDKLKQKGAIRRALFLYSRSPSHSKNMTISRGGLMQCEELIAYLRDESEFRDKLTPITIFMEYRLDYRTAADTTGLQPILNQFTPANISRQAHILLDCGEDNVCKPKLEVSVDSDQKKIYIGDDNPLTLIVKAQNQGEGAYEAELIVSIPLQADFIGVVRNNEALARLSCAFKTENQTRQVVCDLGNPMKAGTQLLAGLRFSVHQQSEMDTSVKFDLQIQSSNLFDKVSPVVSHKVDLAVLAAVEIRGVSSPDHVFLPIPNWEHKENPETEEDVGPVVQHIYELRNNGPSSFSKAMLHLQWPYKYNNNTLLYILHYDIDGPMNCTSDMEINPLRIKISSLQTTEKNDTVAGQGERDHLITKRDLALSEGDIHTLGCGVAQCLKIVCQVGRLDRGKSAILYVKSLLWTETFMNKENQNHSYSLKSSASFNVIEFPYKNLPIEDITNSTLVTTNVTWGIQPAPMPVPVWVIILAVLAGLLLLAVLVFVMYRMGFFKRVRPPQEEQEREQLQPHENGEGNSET
Chain of human integrin αvβ5 (P18084 24-799): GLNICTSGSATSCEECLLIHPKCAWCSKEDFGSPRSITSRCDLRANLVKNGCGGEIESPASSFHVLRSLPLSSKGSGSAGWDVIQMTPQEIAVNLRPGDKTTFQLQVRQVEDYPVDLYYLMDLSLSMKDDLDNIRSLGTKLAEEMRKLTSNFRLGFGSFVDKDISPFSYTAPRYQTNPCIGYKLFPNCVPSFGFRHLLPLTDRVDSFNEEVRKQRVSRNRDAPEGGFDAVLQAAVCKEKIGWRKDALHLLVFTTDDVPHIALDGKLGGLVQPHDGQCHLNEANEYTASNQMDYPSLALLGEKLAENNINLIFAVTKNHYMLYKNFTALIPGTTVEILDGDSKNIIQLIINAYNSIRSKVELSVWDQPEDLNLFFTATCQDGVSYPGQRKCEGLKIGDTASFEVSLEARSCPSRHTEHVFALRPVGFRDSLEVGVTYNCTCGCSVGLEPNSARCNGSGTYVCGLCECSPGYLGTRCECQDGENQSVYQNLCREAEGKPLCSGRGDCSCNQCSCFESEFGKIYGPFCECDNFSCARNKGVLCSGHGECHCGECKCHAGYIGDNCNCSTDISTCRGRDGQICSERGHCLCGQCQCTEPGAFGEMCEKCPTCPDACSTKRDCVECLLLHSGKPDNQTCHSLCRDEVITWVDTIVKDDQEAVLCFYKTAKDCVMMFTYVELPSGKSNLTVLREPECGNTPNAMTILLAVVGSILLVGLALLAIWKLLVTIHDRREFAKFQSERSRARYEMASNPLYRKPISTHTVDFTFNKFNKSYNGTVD

In the case of `CC[C@H](C)[C@@H]1NC(=O)[C@@H](NC(=O)CNC(=O)[C@H](CCCCN)NC(=O)[C@H](CCCCN)NC(=O)[C@@H](N)CCCCN)CCNC(=O)CSC(C)(C)[C@@H](C(=O)N[C@@H](C)C(=O)O)NC(=O)[C@H](CCCNC(=N)N)NC(=O)[C@H](Cc2ccccc2)NC(=O)[C@H]([C@@H](C)O)NC(=O)[C@H](CC(=O)O)NC(=O)CNC(=O)[C@H](CCCNC(=N)N)NC(=O)[C@@H]2CCCN2C1=O` [Cyclic peptide 133, KKKG(Dab(acetyl))IPRGDTFR-(Pen)-A] (H-KKKG[Dab]IPRGDTFR[Pen]A-OH; linker 5-14 via X1), the “Stability (molecule stability, residual rate of the cyclic peptide rank)” value in series [1] is “A (The residual rate of the cyclic peptide is 70% or more.)”. In addition, on human integrin αvβ5 (setting [2]), the pKd is 7.00 to 7.30.

On to `C[C@@H]1NC(=O)[C@H](Cc2ccccc2)NC(=O)[C@H]([C@@H](C)O)NC(=O)[C@H](CC(=O)O)NC(=O)CNC(=O)[C@H](CCCNC(=N)N)NC(=O)[C@H]([C@@H](C)O)NC(=O)[C@H]([C@@H](C)O)NC(=O)[C@@H](NC(=O)[C@H](CCCCN)NC(=O)[C@H](CCCCN)NC(=O)[C@@H](N)CCCCN)CCSCC(=O)NCC[C@@H](C(=O)O)NC1=O` [Cyclic peptide 155, KKK-(Hcy)-TTRGDTFA(Dab(acetyl))] (H-KKK[hCys]TTRGDTFA[Dab]-OH; linker 4-13 via X2), for which, in series [1], the “Stability (molecule stability, residual rate of the cyclic peptide rank)” value is “A (The residual rate of the cyclic peptide is 70% or more.)”. Moreover, the pKd on human integrin αvβ5 (setting [2]) is greater than 7.30.

Regarding `CC[C@H](C)[C@@H]1NC(=O)[C@@H](NC(=O)CNC(=O)[C@H](CCCCN)NC(=O)[C@H](CCCCN)NC(=O)[C@@H](N)CCCCN)C(C)(C)SCC(=O)NCCCC[C@@H](C(=O)N[C@@H](C)C(=O)O)NC(=O)[C@H](CCCNC(=N)N)NC(=O)[C@H](Cc2ccccc2)NC(=O)[C@H]([C@@H](C)O)NC(=O)[C@H](CC(=O)O)NC(=O)CNC(=O)[C@H](CCCNC(=N)N)NC(=O)[C@@H]2CCCN2C1=O` [Cyclic peptide 131, KKKG-(Pen)-IPRGDTFR(Lys(acetyl))A] (H-KKKG[Pen]IPRGDTFRKA-OH; linker 5-14 via X2), the “Stability (molecule stability, residual rate of the cyclic peptide rank)” value in series [1] was “A (The residual rate of the cyclic peptide is 70% or more.)”. For the same compound, at human integrin αvβ5 (setting [2]), the pKd was 7.00 to 7.30.

For `CC(C)C[C@@H]1NC(=O)[C@@H](NC(=O)CNC(=O)[C@H](CCCCN)NC(=O)[C@H](CCCCN)NC(=O)[C@@H](N)CCCCN)CCSCC(=O)NCC[C@@H](C(=O)N[C@@H](C)C(=O)O)NC(=O)[C@H](CCCNC(=N)N)NC(=O)[C@H](Cc2ccccc2)NC(=O)[C@H](CC(N)=O)NC(=O)[C@H](CC(=O)O)NC(=O)CNC(=O)[C@H](CCCNC(=N)N)NC(=O)[C@@H]2CCCN2C1=O` [Cyclic peptide 27, KKKG-(Hcy)-LPRGDNFR(Dab(acetyl))A] (H-KKKG[hCys]LPRGDNFR[Dab]A-OH; linker 5-14 via X2), the “Performance evaluation: Stability (residual rate of cyclic peptide after alkali treatment)” value in series [1] is given as “A (The residual rate of the cyclic peptide is 70% or more.)”. Further, the pKd on human integrin αvβ5 (setting [3]) was greater than 7.30.

On to `CC[C@H](C)[C@@H]1NC(=O)[C@@H](NC(=O)[C@H](CCCCN)NC(=O)[C@H](CCCCN)NC(=O)[C@@H](N)CCCCN)CCSCC(=O)NCC[C@@H](C(=O)O)NC(=O)[C@H](C)NC(=O)[C@H](Cc2ccccc2)NC(=O)[C@H](CO)NC(=O)[C@H](CC(=O)O)NC(=O)CNC(=O)[C@H](CCCNC(=N)N)NC(=O)[C@@H]2CCCN2C1=O` [Cyclic peptide 101, KKK-(Hcy)-IPRGDSFA(Dab(acetyl))] (H-KKK[hCys]IPRGDSFA[Dab]-OH; linker 4-13 via X2), for which the “Stability (molecule stability, residual rate of the cyclic peptide rank)” value in series [1] is recorded as “A (The residual rate of the cyclic peptide is 70% or more.)”. Also, on human integrin αvβ5 (setting [2]), the pKd was greater than 7.30.

For `C[C@@H]1NC(=O)[C@H](Cc2ccccc2)NC(=O)[C@H](CO)NC(=O)[C@H](CC(=O)O)NC(=O)CNC(=O)[C@H](CCCNC(=N)N)NC(=O)[C@H]([C@@H](C)O)NC(=O)[C@H]([C@@H](C)O)NC(=O)[C@@H](NC(=O)[C@H](CCCCN)NC(=O)[C@H](CCCCN)NC(=O)[C@@H](N)CCCCN)CCSCC(=O)NCC[C@@H](C(=O)O)NC1=O` [Cyclic peptide 157, KKK-(Hcy)-TTRGDSFA(Dab(acetyl))] (H-KKK[hCys]TTRGDSFA[Dab]-OH; linker 4-13 via X2), the “Stability (molecule stability, residual rate of the cyclic peptide rank)” value in series [1] is “A (The residual rate of the cyclic peptide is 70% or more.)”. The pKd at human integrin αvβ5 (setting [2]) is greater than 7.30.

On to `CC(C)[C@@H]1NC(=O)[C@@H](NC(=O)[C@H](C)N)CCSCC(=O)NCC[C@@H](C(=O)N[C@@H](C)C(=O)O)NC(=O)[C@H](C)NC(=O)[C@H](Cc2ccccc2)NC(=O)[C@H]([C@@H](C)O)NC(=O)[C@H](CC(=O)O)NC(=O)CNC(=O)[C@H](CCCNC(=N)N)NC(=O)[C@@H]2CCCN2C1=O` [Cyclic peptide 125, A-(Hcy)-VPRGDTFA(Dab(acetyl))A] (H-A[hCys]VPRGDTFA[Dab]A-OH; linker 2-11 via X2), for which the “Stability (molecule stability, residual rate of the cyclic peptide rank)” value in series [1] is “A (The residual rate of the cyclic peptide is 70% or more.)”. The pKd on human integrin αvβ5 (setting [2]) is greater than 7.30.

As for `CC(C)[C@@H]1NC(=O)[C@@H](NC(=O)[C@H](CCCCN)NC(=O)[C@H](CCCCN)NC(=O)[C@@H](N)CCCCN)CCSCC(=O)NCC[C@@H](C(=O)O)NC(=O)[C@H](C)NC(=O)[C@H](Cc2ccccc2)NC(=O)[C@H]([C@@H](C)O)NC(=O)[C@H](CC(=O)O)NC(=O)CNC(=O)[C@H](CCCNC(=N)N)NC(=O)[C@@H]2CCCN2C1=O` [Cyclic peptide 104, KKK-(Hcy)-VPRGDTFA(Dab(acetyl))] (H-KKK[hCys]VPRGDTFA[Dab]-OH; linker 4-13 via X2), the “Stability (molecule stability, residual rate of the cyclic peptide rank)” value in series [1] is listed as “A (The residual rate of the cyclic peptide is 70% or more.)”. Further, the pKd on human integrin αvβ5 (setting [2]) is greater than 7.30.

Consider `N=C(N)NCCC[C@@H]1NC(=O)[C@H](Cc2ccc(O)cc2)NC(=O)[C@H](CC(N)=O)NC(=O)[C@H](CC(=O)O)NC(=O)CNC(=O)[C@H](CCCNC(=N)N)NC(=O)[C@@H]2CCCN2C(=O)[C@H](CCC(=O)O)NC(=O)[C@@H](NC(=O)[C@H](CCC(=O)O)NC(=O)[C@H](CCCCN)NC(=O)[C@H](CCCCN)NC(=O)[C@@H](N)CCCCN)CCSCC(=O)NCC[C@@H](C(=O)N[C@@H](CC(=O)O)C(=O)O)NC1=O` [Cyclic peptide 39, KKKE-(Hcy)-EPRGDNYR(Dab(acetyl))D] (H-KKKE[hCys]EPRGDNYR[Dab]D-OH; linker 5-14 via X2), for which the “Performance evaluation: Stability (residual rate of cyclic peptide after alkali treatment)” value in series [1] was “A (The residual rate of the cyclic peptide is 70% or more.)”. Further, at human integrin αvβ5 (setting [3]), the pKd was greater than 7.30.
